According to ChEMBL document CHEMBL5465560, “Selectivity Literature for EUbOPEN Chemogenomic Library” (2024):

Assays:
[1] = target: MAP kinase-interacting serine/threonine-protein kinase 1 (Homo sapiens) (UniProt Q9BUB5); assay: Selectivity interaction (KinomeScan (DiscoverX)) EUB0001049a MKNK1; conditions: at 1 µM
[2] = target: T1, Histone-lysine N-methyltransferase EHMT1 (Homo sapiens) (UniProt Q9H9B1); conditions: at 1 µM
T1 sequence (whole entry): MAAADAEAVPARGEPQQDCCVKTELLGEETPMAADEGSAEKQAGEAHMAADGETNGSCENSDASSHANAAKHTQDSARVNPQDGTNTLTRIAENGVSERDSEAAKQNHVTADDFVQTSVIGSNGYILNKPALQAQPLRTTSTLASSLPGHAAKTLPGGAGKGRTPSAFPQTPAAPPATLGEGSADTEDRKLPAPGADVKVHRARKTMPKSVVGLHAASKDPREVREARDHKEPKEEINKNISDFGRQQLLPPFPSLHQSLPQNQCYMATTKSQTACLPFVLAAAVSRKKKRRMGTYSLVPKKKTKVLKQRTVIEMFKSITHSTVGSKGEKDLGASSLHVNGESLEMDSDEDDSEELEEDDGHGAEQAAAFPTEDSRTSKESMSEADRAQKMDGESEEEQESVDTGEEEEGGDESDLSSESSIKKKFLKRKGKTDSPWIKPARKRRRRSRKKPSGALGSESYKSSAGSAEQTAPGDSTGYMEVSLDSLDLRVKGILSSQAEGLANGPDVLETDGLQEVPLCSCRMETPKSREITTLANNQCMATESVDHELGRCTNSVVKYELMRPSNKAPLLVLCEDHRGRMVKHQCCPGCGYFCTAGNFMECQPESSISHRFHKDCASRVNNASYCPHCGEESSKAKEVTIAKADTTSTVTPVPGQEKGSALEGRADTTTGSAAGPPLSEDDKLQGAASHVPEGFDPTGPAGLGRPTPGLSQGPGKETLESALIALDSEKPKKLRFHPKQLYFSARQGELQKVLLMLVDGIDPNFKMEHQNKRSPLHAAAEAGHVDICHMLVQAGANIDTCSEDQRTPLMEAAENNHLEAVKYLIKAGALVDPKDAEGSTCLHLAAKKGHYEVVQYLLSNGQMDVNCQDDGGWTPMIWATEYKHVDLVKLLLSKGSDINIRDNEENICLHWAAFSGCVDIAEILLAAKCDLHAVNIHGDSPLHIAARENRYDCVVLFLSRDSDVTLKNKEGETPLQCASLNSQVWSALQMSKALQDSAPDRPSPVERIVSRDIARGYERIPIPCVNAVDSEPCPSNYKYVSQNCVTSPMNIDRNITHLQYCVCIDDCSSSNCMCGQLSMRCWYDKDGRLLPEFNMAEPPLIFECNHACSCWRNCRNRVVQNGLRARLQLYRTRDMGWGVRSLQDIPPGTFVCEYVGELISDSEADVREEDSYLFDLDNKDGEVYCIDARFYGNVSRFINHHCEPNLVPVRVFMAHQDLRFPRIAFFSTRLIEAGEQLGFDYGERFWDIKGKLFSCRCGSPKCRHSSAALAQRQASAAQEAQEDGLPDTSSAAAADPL

[3] = target: 5'-AMP-activated protein kinase catalytic subunit alpha-2 (Homo sapiens) (UniProt P54646); assay: Selectivity interaction (Kinase panel (KiNativ target engagement assay in Jurkat cells)) EUB0001635a PRKAA2; type: cell-based; conditions: at 1 µM
[4] = target: Histone-lysine N-methyltransferase SETD2 (Homo sapiens) (UniProt Q9BYW2); assay: Selectivity interaction (Transferase panel (protein, RNA, and DNA methyltransferases. and EP300 (acetyltransferase))) EUB0000270b SETD2
[5] = target: Mitogen-activated protein kinase 14 (Homo sapiens, UniProt Q16539); assay: Selectivity interaction (KinomeScan (DiscoverX)) EUB0000595a MAPK14; conditions: at 10 µM
[6] = target: Casein kinase II subunit alpha (Homo sapiens, UniProt P68400); assay: Selectivity interaction (KinomeScan (DiscoverX)) EUB0000045b CSNK2A1
[7] = Selectivity interaction (KinomeScan (DiscoverX)) EUB0001619a CDPK1; conditions: at 1 µM
[8] = target: Serine/threonine-protein kinase N1 (Homo sapiens, UniProt Q16512); assay: Selectivity interaction (KinomeScan (DiscoverX)) EUB0000655a PKN1; conditions: at 10 µM
[9] = target: Platelet-derived growth factor receptor beta (Homo sapiens, UniProt P09619); assay: Selectivity interaction (KinomeScan (DiscoverX)) EUB0000695a PDGFRB; conditions: at 100 nM
Focal adhesion kinase 1 = Focal adhesion kinase 1 (Homo sapiens, UniProt Q05397); assay: Selectivity interaction (KinomeScan (DiscoverX)) EUB0000607a PTK2; conditions: at 10 µM
[10] = target: Vascular endothelial growth factor receptor 2 (Homo sapiens, UniProt P35968); assay: Selectivity interaction (NovaScreen assay) EUB0001542aTs KDR

Sequence of Casein kinase II subunit alpha (P68400 whole entry, looked up): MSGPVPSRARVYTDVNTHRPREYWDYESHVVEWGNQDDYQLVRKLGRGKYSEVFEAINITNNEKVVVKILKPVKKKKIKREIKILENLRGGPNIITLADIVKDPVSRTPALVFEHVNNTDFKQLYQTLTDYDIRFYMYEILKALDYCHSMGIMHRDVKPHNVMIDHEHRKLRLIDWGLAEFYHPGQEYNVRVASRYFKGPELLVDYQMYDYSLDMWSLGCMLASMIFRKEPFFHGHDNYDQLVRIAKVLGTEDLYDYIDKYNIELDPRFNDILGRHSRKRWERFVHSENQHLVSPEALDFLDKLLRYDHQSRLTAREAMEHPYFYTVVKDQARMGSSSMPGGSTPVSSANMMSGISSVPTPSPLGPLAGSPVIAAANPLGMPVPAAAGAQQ
Sequence of Histone-lysine N-methyltransferase SETD2 (Homo sapiens) (Q9BYW2 whole entry): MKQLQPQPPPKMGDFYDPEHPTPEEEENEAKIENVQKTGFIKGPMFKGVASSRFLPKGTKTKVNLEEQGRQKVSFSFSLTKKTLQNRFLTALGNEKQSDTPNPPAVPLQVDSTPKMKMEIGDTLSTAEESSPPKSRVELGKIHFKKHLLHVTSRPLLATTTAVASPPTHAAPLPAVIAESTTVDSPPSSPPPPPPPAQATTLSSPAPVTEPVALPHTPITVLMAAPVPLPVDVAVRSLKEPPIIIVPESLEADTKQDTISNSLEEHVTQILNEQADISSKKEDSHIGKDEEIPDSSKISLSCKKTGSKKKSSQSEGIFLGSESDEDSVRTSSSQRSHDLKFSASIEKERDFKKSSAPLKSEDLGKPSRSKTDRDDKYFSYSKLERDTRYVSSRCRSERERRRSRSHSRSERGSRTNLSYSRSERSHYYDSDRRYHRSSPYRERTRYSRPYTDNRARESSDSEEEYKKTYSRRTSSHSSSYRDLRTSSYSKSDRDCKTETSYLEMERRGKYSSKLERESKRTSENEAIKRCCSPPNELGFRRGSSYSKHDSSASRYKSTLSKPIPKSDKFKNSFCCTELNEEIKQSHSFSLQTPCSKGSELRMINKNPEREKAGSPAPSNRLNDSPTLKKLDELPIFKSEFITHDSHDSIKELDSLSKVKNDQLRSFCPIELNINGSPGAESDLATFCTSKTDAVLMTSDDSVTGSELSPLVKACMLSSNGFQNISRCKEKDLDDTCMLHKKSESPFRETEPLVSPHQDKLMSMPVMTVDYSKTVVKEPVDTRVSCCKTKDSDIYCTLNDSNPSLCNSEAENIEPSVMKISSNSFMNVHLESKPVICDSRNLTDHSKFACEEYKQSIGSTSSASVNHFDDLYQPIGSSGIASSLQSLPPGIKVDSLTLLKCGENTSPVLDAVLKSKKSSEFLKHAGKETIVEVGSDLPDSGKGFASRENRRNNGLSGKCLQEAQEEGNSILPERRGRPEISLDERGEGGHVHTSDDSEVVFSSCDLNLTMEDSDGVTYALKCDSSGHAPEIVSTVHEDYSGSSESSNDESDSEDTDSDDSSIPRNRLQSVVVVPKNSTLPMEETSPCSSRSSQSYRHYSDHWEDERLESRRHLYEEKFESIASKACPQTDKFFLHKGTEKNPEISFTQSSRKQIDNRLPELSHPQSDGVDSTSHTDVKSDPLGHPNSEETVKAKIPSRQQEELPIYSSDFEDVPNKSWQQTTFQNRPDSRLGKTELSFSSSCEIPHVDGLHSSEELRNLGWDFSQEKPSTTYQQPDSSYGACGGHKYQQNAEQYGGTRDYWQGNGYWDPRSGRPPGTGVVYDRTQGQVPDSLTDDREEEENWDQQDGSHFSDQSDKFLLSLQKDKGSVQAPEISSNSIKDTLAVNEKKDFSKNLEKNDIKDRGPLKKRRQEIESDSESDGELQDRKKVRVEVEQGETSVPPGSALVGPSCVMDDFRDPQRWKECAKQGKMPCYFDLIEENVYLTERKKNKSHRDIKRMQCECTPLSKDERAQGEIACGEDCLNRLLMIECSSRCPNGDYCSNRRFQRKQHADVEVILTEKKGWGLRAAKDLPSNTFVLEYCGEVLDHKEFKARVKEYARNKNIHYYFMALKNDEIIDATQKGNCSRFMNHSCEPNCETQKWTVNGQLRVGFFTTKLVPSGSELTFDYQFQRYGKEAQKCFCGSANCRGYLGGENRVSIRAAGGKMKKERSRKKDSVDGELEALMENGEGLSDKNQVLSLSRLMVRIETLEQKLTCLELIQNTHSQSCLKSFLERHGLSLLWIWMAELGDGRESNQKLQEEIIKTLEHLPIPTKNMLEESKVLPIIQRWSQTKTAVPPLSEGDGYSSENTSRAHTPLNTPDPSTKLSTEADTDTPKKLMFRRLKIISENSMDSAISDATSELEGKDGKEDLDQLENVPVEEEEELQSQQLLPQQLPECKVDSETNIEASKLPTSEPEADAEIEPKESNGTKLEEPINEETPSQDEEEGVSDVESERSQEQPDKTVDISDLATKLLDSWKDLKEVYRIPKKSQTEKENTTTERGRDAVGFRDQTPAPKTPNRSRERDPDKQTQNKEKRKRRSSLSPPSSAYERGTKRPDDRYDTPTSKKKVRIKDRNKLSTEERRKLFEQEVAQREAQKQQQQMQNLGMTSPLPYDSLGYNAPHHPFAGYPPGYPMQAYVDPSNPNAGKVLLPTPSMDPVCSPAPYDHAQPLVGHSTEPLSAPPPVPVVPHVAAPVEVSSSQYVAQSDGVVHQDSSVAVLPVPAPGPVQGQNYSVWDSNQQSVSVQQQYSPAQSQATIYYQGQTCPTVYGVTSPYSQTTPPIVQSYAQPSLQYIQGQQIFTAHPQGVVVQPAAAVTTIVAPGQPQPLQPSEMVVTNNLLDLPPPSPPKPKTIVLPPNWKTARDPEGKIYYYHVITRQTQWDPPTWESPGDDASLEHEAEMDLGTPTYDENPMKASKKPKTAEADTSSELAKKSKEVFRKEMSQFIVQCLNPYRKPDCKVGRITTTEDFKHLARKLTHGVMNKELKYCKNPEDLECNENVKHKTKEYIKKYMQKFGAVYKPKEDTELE
Sequence of Focal adhesion kinase 1 (Q05397 2-1052 limits assumed): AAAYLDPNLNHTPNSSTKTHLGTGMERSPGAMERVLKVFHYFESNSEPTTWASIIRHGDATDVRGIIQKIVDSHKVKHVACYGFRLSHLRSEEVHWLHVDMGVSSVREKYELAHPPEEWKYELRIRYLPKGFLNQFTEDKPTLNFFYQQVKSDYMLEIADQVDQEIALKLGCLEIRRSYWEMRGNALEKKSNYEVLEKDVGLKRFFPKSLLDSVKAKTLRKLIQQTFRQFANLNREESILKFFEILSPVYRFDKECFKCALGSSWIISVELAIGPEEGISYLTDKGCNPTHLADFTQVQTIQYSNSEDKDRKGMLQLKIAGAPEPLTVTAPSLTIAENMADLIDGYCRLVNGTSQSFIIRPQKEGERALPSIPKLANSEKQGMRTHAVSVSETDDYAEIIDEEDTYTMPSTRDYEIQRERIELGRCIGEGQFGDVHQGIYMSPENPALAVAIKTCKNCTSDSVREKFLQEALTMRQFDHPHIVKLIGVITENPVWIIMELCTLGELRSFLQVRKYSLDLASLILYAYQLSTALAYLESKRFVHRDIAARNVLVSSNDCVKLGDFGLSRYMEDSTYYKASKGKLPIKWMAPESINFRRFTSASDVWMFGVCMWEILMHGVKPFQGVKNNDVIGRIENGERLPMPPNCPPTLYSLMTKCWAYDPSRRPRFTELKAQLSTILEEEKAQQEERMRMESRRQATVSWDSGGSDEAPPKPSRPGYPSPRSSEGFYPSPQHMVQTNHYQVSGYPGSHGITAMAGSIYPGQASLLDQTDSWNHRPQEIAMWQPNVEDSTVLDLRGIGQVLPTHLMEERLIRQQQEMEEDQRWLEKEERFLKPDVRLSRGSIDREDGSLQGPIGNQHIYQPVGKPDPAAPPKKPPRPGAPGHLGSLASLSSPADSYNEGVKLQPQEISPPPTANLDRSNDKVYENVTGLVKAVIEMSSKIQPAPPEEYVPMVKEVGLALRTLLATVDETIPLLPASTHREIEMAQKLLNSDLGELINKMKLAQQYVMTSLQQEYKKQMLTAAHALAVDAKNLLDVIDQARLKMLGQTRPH
Sequence of 5'-AMP-activated protein kinase catalytic subunit alpha-2 (Homo sapiens) (P54646 whole entry, looked up): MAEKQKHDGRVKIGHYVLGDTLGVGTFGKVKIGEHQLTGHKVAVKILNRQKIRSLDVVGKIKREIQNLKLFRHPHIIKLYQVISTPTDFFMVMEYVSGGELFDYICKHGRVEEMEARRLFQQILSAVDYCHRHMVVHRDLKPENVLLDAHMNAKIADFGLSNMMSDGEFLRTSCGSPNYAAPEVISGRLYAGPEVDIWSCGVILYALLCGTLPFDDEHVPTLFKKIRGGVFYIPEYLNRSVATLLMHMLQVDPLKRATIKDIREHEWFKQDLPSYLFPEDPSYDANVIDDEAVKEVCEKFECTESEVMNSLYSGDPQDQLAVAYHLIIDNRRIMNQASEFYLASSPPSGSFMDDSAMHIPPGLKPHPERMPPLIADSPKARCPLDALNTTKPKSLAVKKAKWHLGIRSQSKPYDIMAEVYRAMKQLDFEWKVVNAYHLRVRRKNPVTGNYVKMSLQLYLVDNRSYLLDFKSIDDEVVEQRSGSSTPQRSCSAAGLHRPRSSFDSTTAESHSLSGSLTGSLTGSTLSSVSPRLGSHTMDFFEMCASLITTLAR
Sequence of MAP kinase-interacting serine/threonine-protein kinase 1 (Homo sapiens) (Q9BUB5 whole entry, looked up): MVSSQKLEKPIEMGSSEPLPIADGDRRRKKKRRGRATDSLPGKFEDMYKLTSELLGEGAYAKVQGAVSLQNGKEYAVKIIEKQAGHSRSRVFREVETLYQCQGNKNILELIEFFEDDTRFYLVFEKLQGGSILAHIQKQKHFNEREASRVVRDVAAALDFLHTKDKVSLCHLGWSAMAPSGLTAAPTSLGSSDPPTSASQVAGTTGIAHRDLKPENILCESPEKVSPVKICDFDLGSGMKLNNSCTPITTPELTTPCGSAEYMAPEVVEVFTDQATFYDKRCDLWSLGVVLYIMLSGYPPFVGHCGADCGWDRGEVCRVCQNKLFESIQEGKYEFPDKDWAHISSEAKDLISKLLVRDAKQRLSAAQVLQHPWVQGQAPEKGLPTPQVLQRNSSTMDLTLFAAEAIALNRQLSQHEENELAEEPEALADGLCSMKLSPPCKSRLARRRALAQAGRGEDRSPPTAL

`COc1cc(Nc2nc(C)cc(-c3cnn4nc(OC)ccc34)n2)cc(C(F)(F)F)c1` gave a % of control [1] of 93%.
For `CNCCN1CCC(c2cc(CN(C)C(=O)c3cccc(Oc4ccccc4)c3)ccn2)CC1`, the % activity [2] was > 90%.
Work on `C=CC(=O)Nc1ccc(C(=O)Nc2[nH]nc3c2CN(C(=O)N[C@H](CN(C)C)c2ccccc2)C3(C)C)cc1` yielded a % of engagement [3] of 53.5%.
In the case of `Cc1cc(CN)cc(C)c1-c1ncn(C)c1-c1cncn1C`, the % activity ([4]; at 1 µM) is reported as > 90% and the % activity ([4]; at 10 µM) is reported as > 80%.
`COCC(=O)NC/C=C/c1ccc2ncnc(Nc3ccc(Oc4ccc(C)nc4)c(C)c3)c2c1` [CP-724714] showed a % of control [5] of 100%.
In the case of `C=CC(=O)Nc1cc(-n2c(=O)ccc3cnc4ccc(-c5ccc(NS(C)(=O)=O)cc5)cc4c32)ccc1C`, the % of control ([6]; at 1 µM) is reported as 84% and the % of control ([6]; at 10 µM) is reported as 51%.
Molecule `N#Cc1cccc(-c2c[nH]c3ncnc(N4CCOCC4)c23)c1` has a % of control [7] of 78%.
Work on `CN(C)CCOc1ccc(-c2nc(-c3ccncc3)c(-c3ccc4c(c3)CC/C4=N\O)[nH]2)cc1` yielded a % of control [8] of 92%.
For `Cc1cc(F)c(C(=O)Nc2cccc(-c3nncn3C(C)C)n2)cc1-n1cnc(C2CC2)c1`, the % of control [9] was 90%.
`CNC(=O)Nc1ccc(-c2nc(N3CC4CCC(C3)O4)c3cnn(C4CCC5(CC4)OCCO5)c3n2)cc1` showed a % of control (Focal adhesion kinase 1) of 78%.
For `Cn1cc(Nc2nccc(N3CC4CCC(C3)N4C(=O)[C@@H]3CC3(F)F)n2)cn1`, the IC50 [10] was > 30 µM.
